Assay results from patent US8598355B2, “Amide compound” (Astellas Pharma Inc., priority 2008, dated 2013).

What was measured:
rat EP4 receptor [1] = target: T1, rat EP4 receptor (Rattus norvegicus, UniProt P43114); test: Rat EP4 receptor antagonistic activity by measurement of cAMP amount (rEP4 cAMP HTRF assay, CHO cells); format: cell-based; parameters: expressed in transfected cells; details: inhibition of cAMP, PGE2 100 nM, CHO cells expressing rat EP4
Procedure: Evaluation Test of Rat EP4 Receptor Antagonistic Activity by Measurement of cAMP Amount
CHO cells in which rat EP4 had been forced to be expressed were seeded in 96-well plates at 2×10^4 cells/100 μL and cultured overnight. The culture medium was replaced with 2 μM Indomethacin/0.1% BSA/alpha-MEM, and further, after 60 minutes, replaced with 1 mM IBMX/2 μM Indomethacin/0.1% BSA/alpha-MEM. After 10 minutes, the test compound was added, and further, after 10 minutes, PGE2 was added at a final concentration of 100 nM. The cells were cultured and reacted in a CO2 incubator (37° C., 5% CO2). After 30 minutes, the culture medium was removed and 100 μL/well of 0.2% Triton X-PBS was added for lysis of the cells. The cAMP contained in this cell lysis solution was measured with a cAMP HiRange kit (Cisbio international). The cell lysis solution was disperesed at 10 μL each into a 384-well U-bottom black microplate (Corning), and a d2 reagent and an europium cryptate reagent were added in this order to each well, each in an amount of 5 μL. It was incubated at room temperature for 60 minutes under light shielding. After incubation, the fluorescence of the cryptate at 620 nm and the fluorescence of the d2 at 655 nm were measured using ARVO1420 (PerkinElmer). The cAMPs of 280, 70, 17.5, 4.38, 1.09, 0.27, and 0.068 nM were measured simultaneously for creating a standard curve. The inhibitory rates were calculated by determining the cAMP amount of each test sample to the value obtained by subtracting the cAMP amount of the group without addition of PGE2 from the cAMP amount of the group with addition of PGE2 of 100 nM. IC50 values are calculated by a Logistic regression method.

rat EP4 receptor [2] = target: T1, rat EP4 receptor; test: In vivo rat EP4 receptor antagonistic activity (ONO-4819/LPS, plasma TNF-α); details: SD rat, oral
Procedure: Evaluation Test of In Vivo Rat EP4 Receptor Antagonistic Activity
A solution of PEG 400:20% Tween 80:aqueous 1 M NaHCO3 solution=1:4:5 of a test compound was orally administered to a SD rat (male, 6-week old) under non-fasting conditions, and after 1 hour, ONO-4819 was administered subcutaneously to the back of the rat. After 30 minutes, Lipopolysaccharide (LPS, 0.01 mg/kg) was administered to the tail vein without anesthesia, and after 60 minutes, 0.5 mL of heparin blood was collected from the fundus under ether anesthesia. The blood sample was centrifuged (3000 rpm, 10 minutes) to separate the plasma, and then the TNF-α concentration in the rat plasma was measured by an ELISA kit (see Hepatology Research Journal, vol. 21, 252-260, 2001). A value obtained by subtracting the TNF-α concentration of the group treated with ONO-4819 from the TNF-α concentration of the group not treated with ONO-4819 was taken as 100%, and the inhibitory rates to the value were calculated for the test compounds.
In this connection, Ex represents the below-described Example compound number.

rat EP4 receptor [3] = target: T1, rat EP4 receptor; test: Evaluation test of rat EP4 receptor affinity ([3H]PGE2 binding, membrane fraction of HEK293 cells expressing rat EP4); parameters: expressed in transfected cells; host or cells: HEK293 cells, transient transfection with Lipofectamine 2000; membrane fraction; details: [3H]PGE2 0.3 nM
Procedure: Evaluation Test of Rat EP4 Receptor Affinity
Cell Culturing and Transfection
Using a 10 cm collagen-coated dish (Asahi Glass), HEK293 cells were cultured in D-MEM culture medium, the culture medium was removed at a confluence (90 to 100% density state) and washed with a phosphate buffer saline (PBS), and then the cells were detached with N,N,N′,N′-tetrakis(carboxymethyl)ethylenediamine (EDTA). The number of the cells were counted and seeded on a 15 cm collagen-coated dish to a confluence of 70%. On the next day, to an Opti-MEM culture medium at 1.2 mL/dish was added Lipofectamine 2000 (Invitrogen) at 60 μL/dish, followed by leaving to stand at room temperature for 5 minutes. A plasmid in which rat EP4 (Sequence Number 1) had been inserted into a TA cloning site of pcDNA3.1-V5-His-topo was added thereto at 15 μg/dish. After leaving to stand at room temperature for 30 minutes, the resultant was added to the dish and cultured for 20 to 24 hours. The cell culture was carried out in a CO2 incubator (37° C., 5% CO2).
Preparation of Membrane Fraction
The culture medium was removed by suction, 10 mL of cooled PBS was added thereto per 15 cm dish, and the cells were scraped using a cell scraper (Sumitomo Bakelite). They were washed with cooled PBS (1,200 rpm, 4° C., 5 min), and then suspended in 6 mL of cooled 20 mM Tris-HCl (pH 7.4; Nakalai Tesque Inc., including 5 mM EDTA (Nakalai Tesque Inc.) per dish and the resultant was homogenized using a Polytron and the homogenate was centrifuged (26,000 rpm, 20 min, 4° C.). The obtained precipitate was resuspended in cooled 20 mM Tris-HCl and homogenized again using a Polytron, and the homogenate was centrifuged (26,000 rpm, 20 min, 4° C.). The obtained precipitate was resuspended in 50 mM HEPES (pH 7.5; Dojindo Laboratories) at 1 mL per dish, homogenized using a Polytron, and freeze-stored at −80° C. as a membrane fraction. At this time, a part thereof was used for the measurement of the protein concentration. Measurement of the protein concentration was carried out in duplicate using a Bio-Rad Protein assay kit (Bio-Rad Laboratories) in accordance with the appended standard Protocol.
[^3H]PGE2 50 μL (final concentration 0.3 nM; Perkin Elmer), 100 μL (20 μg/well) of a membrane fraction prepared from the rat EP4 expression cell and 50 μL of a test compound were mixed in a 96-well microplate (Sumitomo Bakelite), incubated at room temperature for 1 hour, filtered by suction on a UniFilter-96 GF/B (Perkin Elmer) using a FilterMate Harvester (Perkin Elmer), and then washed three times with 300 μL/well of a cooled assay buffer. Dilution of [^3H]PGE2 and the membrane fraction was carried out using an assay buffer (50 mM HEPES, 10 mM MgCl2), and dilution of the test compound and the unlabeled PGE2 was carried out using DMSO and an assay buffer. Further, in the case of the addition of a human serum albumin (HSA), dilution was carried out using an assay buffer containing 4% HSA (final concentration 1%; Sigma). The UniFilter-96 GF/B was treated preliminarily by washing twice with 200 μL/well of a cooled assay buffer. The UniFilter-96 GF/B after filtration was dried in a dryer overnight, 50 μL/well of MicroScint20 (Perkin Elmer) was added thereto, and then the radioactivity was measured using a TopCount (Perkin Elmer). For measurement of the non-specific binding, an unlabeled PGE2 (final concentration 1 μM; Cayman) was added. All of the measurements were carried out in duplicate, and the specific binding amount was determined by subtracting the non-specific binding amount from the total binding amount. The Ki value was calculated according to the general methods.
In the connection, Ex represents the below-described Example Compound number.

T1 sequence (P43114 whole entry): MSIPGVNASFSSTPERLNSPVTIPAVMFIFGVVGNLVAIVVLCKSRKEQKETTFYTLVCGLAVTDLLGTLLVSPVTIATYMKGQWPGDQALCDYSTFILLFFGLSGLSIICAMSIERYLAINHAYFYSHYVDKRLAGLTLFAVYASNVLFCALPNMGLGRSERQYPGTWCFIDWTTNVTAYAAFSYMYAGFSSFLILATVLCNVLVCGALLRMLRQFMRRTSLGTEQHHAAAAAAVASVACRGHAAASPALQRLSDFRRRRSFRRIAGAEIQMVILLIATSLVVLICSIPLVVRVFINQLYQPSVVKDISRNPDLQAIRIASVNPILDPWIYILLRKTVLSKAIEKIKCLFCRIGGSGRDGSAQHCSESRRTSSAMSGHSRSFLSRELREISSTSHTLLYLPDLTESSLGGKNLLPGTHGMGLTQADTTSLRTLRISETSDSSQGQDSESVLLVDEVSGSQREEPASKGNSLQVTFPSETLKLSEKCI

IC50 (rat EP4 receptor [1])	Inhibitory rate (%) (rat EP4 receptor [2]; dose 0.01 mg/kg)	Ki (rat EP4 receptor [3])	Inhibitory rate (%) (rat EP4 receptor [2]; dose 0.03 mg/kg)	Structure (SMILES)
0.9 nM	45%	1.4 nM		O=C(NC[C@H]1CC[C@H](C(=O)O)CC1)c1cc(Cl)cc2ccn(Cc3ccc4ccccc4n3)c12 [Example 53]
0.76 nM		0.85 nM	113%	O=C(O)c1ccc(CNC(=O)c2cc(Cl)cc3ccn(Cc4ccc5ccccc5n4)c23)cc1 [Example 57]
1.1 nM		1.4 nM	105%	O=C(NC[C@H]1CC[C@H](C(=O)O)CC1)c1cc(C(F)(F)F)cc2ccn(Cc3ccc4ccccc4n3)c12 [Example 124]
